Key:
A2780 cells [1] = assay: Total intracellular ROS (CM-DCFH-DA), A2780; assay type: cell-based, human; conditions: 2 h
Procedure: Monitoring total intracellular ROS (tROS)
A2780 cells were seeded in RPMI 1640 medium containing 5% FBS, 1% L-glutamine and 1% penicillin/streptomycin in a 24-well microtiter plate (total volume 0.5 mL) at a density of 200 cells/µL one day before the experiment. On the day of the experiment, the cells were washed twice with DPBS buffer and the medium was replaced with HBSS (Hanks' Balanced Salt solution, 500 μL). CM-DCFH-DA (5-(6-)chloromethyl-2',7'- dichlorodihydrofluorescein diacetate, Thermo- Fisher) solution (0.1 mM in DMSO, 5 μL) was added (final concentration 1 µM) and the cells were incubated in the dark chamber filled with CO2 (5%) at 37 °C for 15 min. […] Finally, the fluorescence of live cells (λex = 488 nm, λem = 525 nm) in the suspensions was determined by using flow cytometry (Figure 4A, 5C).
Intracellular ROS release in Jurkat cells was monitored analogously (Figure S58).
Figure S58. […] OY-axis “Fluorescence”: the increase of the mean fluorescence (λex = 488 […]

A2780 cells [2] = assay: Mechanism of death of A2780 cells (Annexin A5/PI flow cytometry); assay type: cell-based, human; conditions: A2780, 48 h
Procedure: Figure S54. Effect of prodrugs 1 and 2c (48 h incubation) on the intracellular amount of GSH in Jurkat cells. *: p< 0.05; ns: non-significant (Student’s t test). Detailed experimental description is provided above.
Study of the mechanism of death of A2780 cells induced by prodrug 2c and controls A2780 cells were seeded into 96 well culture plates at the same cell concentration and in the same medium as applied for the above described MTT assay (48 h incubation with the prodrugs). The next day, stock solutions of prodrugs of different concentrations (1 µ L, solvent DMSO, final concentrations in wells were 5, 10 and 30 µ M) or carrier only (DMSO, 1 µ L, final concentration 1 %, v/v) were added to the wells and incubated in the chamber filled with CO 2 (5%). After 48 h supernatants were transferred into 1.5 mL Eppendorf tubes and 100 µ L of DPBS was added to transfer supernatant residue into tube. Trypsin (0.25%, 50 µ L) was then added to well to detach the cells. All supernatants in Eppendorf tubes were combined back into wells. After gently pipetting up and down, 50 µ L of cell solutions was transferred into a new Eppendorf tube and incubated with 200 µ L of staining solution, consisting of Annexin A5-Fitc (5 µ L) and propidium iodide (PI, 330 ng) per 1 mL buffer (conc. 1X). […]

SMILES: CC1(C)OB(c2ccc(COC(=O)N(Cc3cn(Cc4ccc(Cn5cc(Cc6ccccc6)nn5)cc4)nn3)[c-]3cccc3)cc2)OC1(C)C.[Fe+2].c1cc[cH-]c1 [2c]
- total ROS (tROS) vs background (A2780 cells [1]): significantly higher than its background levels
- mechanism of cell death (A2780 cells [2]): mainly via necrosis

From PMC8750417, “Intracellular Amplifiers of Reactive Oxygen Species Affecting Mitochondria as Radiosensitizers” (Cancers, 2021)
